Assay results from patent publication US20080105961A1, “Ligands of the Molecule Fit (Agt-121) and their Pharmaceutical Use” (priority 2004, published 2008).
Marks after values point to notes of the source that are not given here.

Legend:
MC4R = molecular target: T1, MC4R (Rattus norvegicus, UniProt P70596); assay: Feeding response to MT II after ODN or saline infusion; assay type: in vivo, Sprague Dawley rats; conditions: for Δ FI: 24 hr food intake post minus pre injection; for Δ FI / 24 hr FI post injection / 24 hr FI pre injection: mean ± SEM; for 24 hr FI post injection: food intake after MT II or vehicle injection; for 24 hr FI pre injection: food intake, during ICV infusion, before MT II or vehicle injection
T1 construct: from tissue; host or cells: living Sprague Dawley rats (brain)
Method: To further investigate this relationship, antisense suppression of FIT in Sprague Dawley rats was again performed and these animals' responses to administration of the α-MSH analog MT II, a synthetic agonist of the MC4R and known suppressor of feeding. MT II effects on food intake and body weight in saline and jumbled ODN-treated control rats, as well as in FIT antisense-treated rats was measured.

FIT mRNA [1] = assay: Metabolic heat production by indirect calorimetry (FIG. 1); assay type: in vivo, Sprague Dawley rats; conditions: Sprague Dawley rats, after three days of treatment
From the text: FIG. 1 is a graphical representation of metabolic heat production in Sprague Dawley rats after three days of FIT antisense-treatment compared to jumbled ad libitum fed and jumbled pair fed rats. *p<0.05 pair fed compared to jumbled group, #p<0.05 pair fed compared to FIT antisense-treated group, ̂p<0.05 compared to both jumbled and FIT antisense-treated groups. Data are mean ±SEM.
To further dissect the nature of the inability to reduce TEE levels after FIT antisense treatment, metabolic heat production was measured by indirect calorimetry.

FIT mRNA [2] = assay: ICV infusion of FIT antisense ODN in Sprague Dawley rats: food intake and body weight; assay type: in vivo
Method: To confirm the appetite-suppressing and weight-reducing effects of central FIT suppression in an animal model other than P. obesus, the inventors performed the same experiments in Sprague Dawley rats. Male, 12 week old Sprague Dawley rats were infused with either saline, FIT antisense ODN, or jumbled ODN at 24 μg/day for four days. The sequence of the FIT antisense ODN and the jumbled ODN are the same as in Example 2 above.

FIT mRNA [3] = assay: Hypothalamic FIT gene expression by semi-quantitative RT-PCR in ICV antisense-treated rats; assay type: in vivo, Sprague Dawley rats; conditions: hypothalamus
Method: To confirm endogenous suppression of FIT in antisense-treated Sprague Dawley rats, FIT mRNA in the hypothalamus of these animals was measured.

FIT mRNA [4] = assay: ICV infusion of FIT antisense ODN in Psammomys obesus: food intake and body weight; assay type: in vivo
Method: To further investigate the orexigenic properties of FIT intracerebroventricular (ICV) antisense suppression of FIT was performed. This involved the infusion of FIT antisense oligonucleotides (ODNs) directly into the lateral ventricle space of the brain to suppress endogenous FIT mRNA levels. The effects of this treatment on food intake and body weight were measured and compared to control animals infused with a jumbled sequence ODN, or saline alone. 18 week old, male, lean, normal glucose tolerant (nGT) P. obesus animals were utilised for this study and infused with either saline, FIT antisense ODN, or jumbled ODN at 24 μg/day for four days. The sequence of the FIT antisense ODN was 5′-mu*mg*mg*mc*ma*g*a*a*t*t*g*c*a*mu*mu*mc*mc*mu*-3′, and the jumbled ODN 5′-mc*mg*mc*ma*mc*t*t*a*g*c*t*a*c*mu*mu*mg*mc*mu-3′, where m indicates the presence of a 2′O-Methyl-modified base, and * indicates a phosphorothioate linkage.

FIT mRNA [5] = assay: Pair-feeding study with indirect calorimetry (24 h): body weight, food intake, total energy expenditure; assay type: in vivo, Sprague Dawley rats
Method: To investigate the mechanism of weight loss after FIT antisense treatment, a group of Sprague Dawley rats were pair fed to the average daily food intake levels of FIT antisense-treated rats, and indirect calorimetry (24 h) was performed before and after FIT antisense or jumbled ODN ICV infusion.
Total energy expenditure (TEE) was calculated from measurements of oxygen consumption and carbon dioxide production using indirect calorimetry (Ferrannini, 1988). Due to differences in body weight between the three groups of rats, TEE levels were calculated relative to whole body mass of the animals. […] FIT antisense-treated rats therefore have an inappropriately high level of energy expenditure for their body weight.

melanocortin receptor = assay: Feeding response to ICV injection of SHU9119 after three days of ODN or saline infusion; assay type: in vivo, Sprague Dawley rats
From the text: To further analyse the link between FIT and the melanocortin system, the feeding response of Sprague Dawley rats to an ICV injection of SHU9119, a melanocortin receptor antagonist and known feeding stimulator was investigated. After three days of FIT antisense treatment, jumbled oligonucleotide or saline infusion, responses were compared to rats receiving an ICV injection of saline vehicle rather than SHU9119.

MC3R and MC4R = conditions: ICV infusion, mice (Murphy et al. 1998); cited from earlier work
FIT gene expression = FIT gene expression in the hypothalamus of monogenic mouse models of obesity; assay type: in vivo; conditions: leptin-treated ob/ob mice, mean ± SEM
Method: To investigate the molecular pathway via which FIT affect food intake, FIT gene expression was measured in the hypothalamus of several different monogenic mouse models of obesity. […] FIT gene expression was not altered in other genetic models of obesity such as leptin deficient ob/ob mice, MC3R knockout mice and MC4R knockout mice.

SH3GL2; endophilin 1 [6] = molecular target: T2, SH3GL2; endophilin 1 (human, UniProt Q99962 1-352); assay: yeast two-hybrid screen of a human brain cDNA library (12 clones)
T2 construct: Prey clone from a human brain cDNA library; not shown: not specified
From the text: (§1) The inventors utilised a yeast two-hybrid system which incorporates modifications by Chevray and Nathans (1992), and Vidal et al. (1996) to screen a human brain cDNA library.

SH3GL2; endophilin 1 [7] = molecular target: T2, SH3GL2; endophilin 1; assay: yeast two-hybrid screen of a human brain cDNA library (14 clones)
From the text: as §1

[8] = ICV 24 μg/day, day 1, mean ± SEM
[9] = ICV 24 μg/day, day 2, mean ± SEM
[10] = ICV 24 μg/day, day 3, mean ± SEM
[11] = ICV 24 μg/day, day 4, mean ± SEM
[12] = baseline body weight, mean ± SEM
[13] = change compared to day 0, mean ± SEM
[14] = not pair fed (jumbled group ad libitum fed), mean ± SEM

T1 sequence (P70596 whole entry, the tested form may be a part): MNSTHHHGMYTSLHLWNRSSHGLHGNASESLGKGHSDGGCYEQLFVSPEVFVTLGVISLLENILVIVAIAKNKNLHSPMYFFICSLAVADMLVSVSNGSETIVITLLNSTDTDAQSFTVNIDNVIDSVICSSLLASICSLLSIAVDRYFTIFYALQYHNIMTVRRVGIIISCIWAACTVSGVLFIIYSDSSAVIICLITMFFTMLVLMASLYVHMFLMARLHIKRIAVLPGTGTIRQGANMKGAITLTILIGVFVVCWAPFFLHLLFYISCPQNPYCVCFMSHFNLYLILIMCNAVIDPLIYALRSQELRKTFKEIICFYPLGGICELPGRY
T2 sequence (Q99962 whole entry): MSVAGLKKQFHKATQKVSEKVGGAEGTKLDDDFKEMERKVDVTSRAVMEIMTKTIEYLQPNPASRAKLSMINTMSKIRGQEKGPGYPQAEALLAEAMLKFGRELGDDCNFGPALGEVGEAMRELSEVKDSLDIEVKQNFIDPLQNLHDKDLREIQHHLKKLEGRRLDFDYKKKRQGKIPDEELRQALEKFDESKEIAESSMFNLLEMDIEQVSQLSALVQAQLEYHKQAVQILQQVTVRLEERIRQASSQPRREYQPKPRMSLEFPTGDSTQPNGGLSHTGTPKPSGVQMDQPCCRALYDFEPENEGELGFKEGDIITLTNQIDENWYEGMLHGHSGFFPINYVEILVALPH

5′-mu*mg*mg*mc*ma*g*a*a*t*t*g*c*a*mu*mu*mc*mc*mu*-3′ [FIT antisense]
Δ FI (MC4R): −0.01 ± 0.01^c g/g BW
24 hr FI post injection (MC4R): 0.03 ± 0.01 g/g BW
24 hr FI pre injection (MC4R): 0.04 ± 0.01^d g/g BW
metabolic heat production (FIT mRNA [1]): inability to reduce heat production
Cumulative food intake, Day 1 Food (FIT mRNA [2]; [8]): 8.6 ± 1.6^a,b g
Cumulative food intake, Day 2 Food (FIT mRNA [2]; [9]): 23.4 ± 2.6^a,b g
Cumulative food intake, Day 3 Food (FIT mRNA [2]; [10]): 38.3 ± 3.6^a,b g
Cumulative food intake, Day 4 Food (FIT mRNA [2]; [11]): 55.0 ± 4.9^a,b g
Day 1 BW (FIT mRNA [2]; ICV 24 μg/day, mean ± SEM): 425 ± 37 g
Day 2 BW (FIT mRNA [2]; ICV 24 μg/day, mean ± SEM): 415 ± 37 g
Day 3 BW (FIT mRNA [2]; ICV 24 μg/day, mean ± SEM): 410 ± 38^a g
Day 4 BW (FIT mRNA [2]; ICV 24 μg/day, mean ± SEM): 408 ± 37^a g
Day 0 BW (FIT mRNA [2]; [12]): 444 ± 37 g
Day 1 ΔBW (FIT mRNA [2]; [13]): −19.6 ± 2.9^b g
Day 2 ΔBW (FIT mRNA [2]; [13]): −28.8 ± 4.1^a,b g
Day 3 ΔBW (FIT mRNA [2]; [13]): −34.4 ± 4.1^a,b g
Day 4 ΔBW (FIT mRNA [2]; [13]): −36.6 ± 6.7^a,b g
FIT gene expression (FIT mRNA [3]; ICV-treated Sprague Dawley rats, mean ± SEM): 6.6 ± 1.0^a arbitrary units
FIT gene expression suppressed compared to jumbled-treated rats (FIT mRNA [3]; Sprague Dawley rats): 20%
FIT gene expression suppressed compared to saline-treated rats (FIT mRNA [3]; Sprague Dawley rats): 37%
Cumulative food intake, Day 1 Food (FIT mRNA [4]; [8]): 6.5 ± 1.6^a g
Cumulative food intake, Day 2 Food (FIT mRNA [4]; [9]): 12.3 ± 2.9^a g
Cumulative food intake, Day 3 Food (FIT mRNA [4]; [10]): 18.9 ± 3.9^a g
Cumulative food intake, Day 4 Food (FIT mRNA [4]; [11]): 27.4 ± 4.4^a,b g
Day 1 BW (FIT mRNA [4]; ICV 24 μg/day, mean ± SEM): 195 ± 7 g
Day 2 BW (FIT mRNA [4]; ICV 24 μg/day, mean ± SEM): 194 ± 8 g
Day 3 BW (FIT mRNA [4]; ICV 24 μg/day, mean ± SEM): 192 ± 7 g
Day 4 BW (FIT mRNA [4]; ICV 24 μg/day, mean ± SEM): 190 ± 7 g
cumulative food intake compared to jumbled oligonucleotide-infused and saline-treated control animals (FIT mRNA [4]; ICV, after four days of treatment): significantly reduced
Day 0 BW (FIT mRNA [4]; [12]): 199 ± 7 g
Day 1 ΔBW (FIT mRNA [4]; [13]): −4.5 ± 0.7^a g
Day 2 ΔBW (FIT mRNA [4]; [13]): −5.7 ± 2.1^a g
Day 3 ΔBW (FIT mRNA [4]; [13]): −7.7 ± 1.8^a g
Day 4 ΔBW (FIT mRNA [4]; [13]): −9.2 ± 1.5^a,b g
ability to reduce TEE levels (FIT mRNA [5]; Sprague Dawley rats, TEE relative to whole body mass): unable to significantly reduce
Day 0 BW (FIT mRNA [5]; not pair fed (jumbled group ad libitum fed), baseline, mean ± SEM): 408 ± 13 g
Day 4 BW (FIT mRNA [5]; [14]): 338 ± 12^a,c g
Food Intake (FIT mRNA [5]; [14]): 36.4 ± 11.2^a g
Δ BW (FIT mRNA [5]; [14]): −70.0 ± 8.6^a,b g
Δ TEE (FIT mRNA [5]; not pair fed, mean ± SEM): -67 ± 25 kJ/day/kg
Post TEE (FIT mRNA [5]; not pair fed, total energy expenditure after ICV infusion, mean ± SEM): 525 ± 22 kJ/day/kg
Pre TEE (FIT mRNA [5]; not pair fed, total energy expenditure before ICV infusion, mean ± SEM): 592 ± 30 kJ/day/kg
Δ FI (melanocortin receptor; 48 hr food intake post minus pre injection, mean ± SEM): 0.02 ± 0.01 g/g BW
48 hr FI post injection (melanocortin receptor; food intake relative to body weight, after ICV SHU9119 or vehicle injection, mean ± SEM): 0.09 ± 0.01^b,d g/g BW
48 hr FI pre injection (melanocortin receptor; food intake relative to body weight, during ICV infusion, before SHU9119 or vehicle injection, mean ± SEM): 0.07 ± 0.01^b g/g BW
feeding response after SHU9119 injection compared to jumbled-treated or saline-treated rats (melanocortin receptor; relative to body weight): significantly increased

MT II
Δ FI (MC4R): −0.04 ± 0.01 g/g BW
24 hr FI post injection (MC4R): 0.03 ± 0.01^a g/g BW
24 hr FI pre injection (MC4R): 0.07 ± 0.01 g/g BW
inhibitory effect on food intake in rats pre-treated with FIT antisense ODN versus control groups (MC4R; not statistically significantly different from control groups): tended to have a greater inhibitory effect
effect on food intake (MC3R and MC4R): decrease food intake

B1: Leptin: leptin given to leptin deficient ob/ob mice (protein, UniProt P41160 22-167, looked up)
Leptin: VPIQKVQDDTKTLIKTIVTRINDISHTQSVSAKQRVTGLDFIPGLHPILSLSKMDQTLAVYQQVLTSLPSQNVLQIANDLENLRDLLHLLAFSKSCSLPQTSGLQKPESLDGVLEASLYSTEVVALSRLQGSLQDILQQLDVSPEC
FIT gene expression (FIT gene expression): 1.3 ± 0.3 arbitrary units

B2: FIT-PR (FIT proline-rich region), yeast two-hybrid bait (other, not shown: small tags and cut ends)
chain: RPFPTGTPPPLPPKTVPATPPRTGSPLTVATGNDQAATEAKIEKPPSISDLDSIFGPVLSPKSVAVNTEETWVHFSDASPEHVTPELTPREKVVTPPAASDIPADSPTPGPPGPPGSAGPPGPPGPRNVPSPLNLEEVQKKVAEQTFIKDDYLETLSSPKECGLGQRATPPPPPPPTYRTVVSSPGPGSGSGTGTASGASSPARPATPLVPCSCSTPPPPPPRPPSRPKLPPGKPGVGDVSRPFSPPIHSSSPPPIAPL
notes: Truncated fragment of FIT used as bait in a yeast two-hybrid screen of a human brain cDNA library; also called AGT-121
binding result (SH3GL2; endophilin 1 [6]): binds

B3: FIT-NP (FIT N-terminal plus proline-rich region), yeast two-hybrid bait (other, not shown: small tags and cut ends)
chain: MMEGLKKRTRKAFGIRKKEKDTDSTGSPDRDGMQPSPHELPYHSKAECAREGGKKASKKSNGAPNGFYAEIDWERYNSPELDEEGYSIRPEEPGSTKGKHFYSSSESEEEEESHKKFNIKIKPLQSKDILKNAATVDELKASIGNIALSPSPVRKSPRRSPGAIKRNLSSEEVARPRRSTPTPELTSKKPLDDTLALAPLFGPPLESAFDGHKTEVLLDQPEIWGSGQPVNPSMESPKLARPFPTGTPPPLPPKTVPATPPRTGSPLTVATGNDQAATEAKIEKPPSISDLDSIFGPVLSPKSVAVNTEETWVHFSDASPEHVTPELTPREKVVTPPAASDIPADSPTPGPPGPPGSAGPPGPPGPRNVPSPLNLEEVQKKVAEQTFIKDDYLETLSSPKECGLGQRETPPPPPPPTYRTVVSSPGPGSGSGTGTASGASSPARPATPLVPCSCSTPPPPPPRPPSRPKLPPGKPGVGDVSRPFSPPIHSSSPPPIAPL
notes: as for B2
binding result (SH3GL2; endophilin 1 [7]): binds
